Measured values taken from patent US8344027B2, “4-dimethylaminobutyric acid derivatives” (Hoffmann-La Roche Inc., priority 2008, dated 2013).

Tests used:
hCPT2 = molecular target: T1, hCPT2 (Homo sapiens, UniProt P23786); assay: CPT2 inhibition, spectrophotometric DTNB (Ellman's reagent) assay; format: biochemical; conditions: human CPT2 expressed in P. pastoris, cell extract; carnitine 500 μM, palmitoyl-CoA 80 μM, DTNB 300 μM
T1 construct: made in house; host or cells: Pichia pastoris strain X-33
T1 sequence (P23786 26-658): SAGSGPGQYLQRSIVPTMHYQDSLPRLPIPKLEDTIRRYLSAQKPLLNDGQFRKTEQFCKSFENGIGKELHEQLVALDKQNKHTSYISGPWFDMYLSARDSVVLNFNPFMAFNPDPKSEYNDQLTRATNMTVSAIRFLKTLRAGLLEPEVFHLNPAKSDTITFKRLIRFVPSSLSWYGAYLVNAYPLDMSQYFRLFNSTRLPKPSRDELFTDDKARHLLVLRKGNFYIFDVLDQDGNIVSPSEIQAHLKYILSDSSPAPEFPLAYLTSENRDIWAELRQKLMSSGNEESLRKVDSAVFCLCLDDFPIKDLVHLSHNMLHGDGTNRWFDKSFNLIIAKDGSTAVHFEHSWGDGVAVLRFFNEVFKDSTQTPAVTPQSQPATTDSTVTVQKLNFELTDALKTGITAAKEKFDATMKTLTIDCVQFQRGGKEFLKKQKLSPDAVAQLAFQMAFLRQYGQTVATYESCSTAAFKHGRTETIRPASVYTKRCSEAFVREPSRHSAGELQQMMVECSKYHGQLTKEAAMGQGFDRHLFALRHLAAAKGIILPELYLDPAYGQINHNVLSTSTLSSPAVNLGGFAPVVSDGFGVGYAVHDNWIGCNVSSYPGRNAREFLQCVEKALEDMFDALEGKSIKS
Procedure: (§1) The following tests were carried out in order to determine the activity of the compounds of the present invention. Background information on the performed assays can be found in: Jackson et al., 1999, Biochem. J. 341, 483-489 and Jackson et al., 2000, J. Biol. Chem. 275, 19560-19566.
(§2) Human and rat CPT2- and liver CPT1 cDNAs, and human muscle CPT1 cDNA were subcloned in pGAPZB or pGAPZA, respectively. These plasmids were used to transform P. pastoris strain X-33 via electroporation after the preparation of electrocompetent cells. High copy number clones were selected where necessary using 0.5 or 1 mg/ml Zeocin. Cultures for activity measurements were induced for 16 h in YPD medium (1% yeast extract, 2% peptone, 2% glucose). Crude cell extracts were prepared by disrupting the cells with glass beads or French Press, depending on fermenter sizes. After centrifugation, the cell-free extracts were resuspended in cell breaking buffer (50 mM Tris, pH7.4, 100 mM KCl, 1 mM EDTA) in the presence of a protease inhibitor cocktail, before aliquoting and freezing at −20° C.
(§3) CPT activity was measured using a spectrophotometric assay using 5,5′-dithio-bis-(2-nitrobenzoic acid) (DTNB) also called Ellman's reagent. The HS-CoA released on the formation of acylcarnitine from carnitine (500 μM) and palmitoyl-CoA (80 μM) reduced DTNB (300 μM) forming 5-mercapto-2-nitrobenzoic acid which absorbed at 410 nm with a molar extinction coefficient of 13600 M^−1cm^−1. The assay buffer contained 120 mM KCl, 25 mM Tris, pH 7.4, 1 mM EDTA. This assay was used for the identification of CPT inhibitors, particularly/preferentially CPT2-selective inhibitors, versus the liver and muscle CPT1 isoforms.

hL-CPT1 = molecular target: T2, hL-CPT1 (Homo sapiens, UniProt P50416); assay: liver CPT1 inhibition, spectrophotometric DTNB (Ellman's reagent) assay; format: biochemical; conditions: human liver CPT1 expressed in P. pastoris, cell extract; carnitine 500 μM, palmitoyl-CoA 80 μM, DTNB 300 μM
T2 construct: made in house; host or cells: Pichia pastoris strain X-33
T2 sequence (P50416 1-773): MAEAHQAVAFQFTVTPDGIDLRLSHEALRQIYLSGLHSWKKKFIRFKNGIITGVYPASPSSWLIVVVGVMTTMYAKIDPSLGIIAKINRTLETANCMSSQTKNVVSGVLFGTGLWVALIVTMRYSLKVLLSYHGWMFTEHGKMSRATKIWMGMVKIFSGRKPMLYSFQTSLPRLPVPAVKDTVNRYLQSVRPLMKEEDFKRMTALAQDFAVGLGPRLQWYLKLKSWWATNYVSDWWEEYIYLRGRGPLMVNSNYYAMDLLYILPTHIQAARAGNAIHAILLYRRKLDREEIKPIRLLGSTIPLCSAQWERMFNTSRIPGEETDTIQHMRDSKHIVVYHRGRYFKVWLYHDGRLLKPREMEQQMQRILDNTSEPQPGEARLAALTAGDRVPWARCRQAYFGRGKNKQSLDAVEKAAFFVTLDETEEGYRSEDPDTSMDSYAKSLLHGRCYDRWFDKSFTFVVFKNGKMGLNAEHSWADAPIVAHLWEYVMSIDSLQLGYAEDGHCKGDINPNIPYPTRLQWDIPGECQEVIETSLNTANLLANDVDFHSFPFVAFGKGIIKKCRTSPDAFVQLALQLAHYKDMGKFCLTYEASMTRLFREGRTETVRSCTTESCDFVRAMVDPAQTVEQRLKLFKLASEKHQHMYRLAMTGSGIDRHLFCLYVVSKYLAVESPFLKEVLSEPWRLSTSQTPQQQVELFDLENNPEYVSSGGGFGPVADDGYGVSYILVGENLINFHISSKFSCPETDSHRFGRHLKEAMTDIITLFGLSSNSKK
Procedure: as §1, §2, §3

For `CN(C)C[C@@H](CC(=O)O)NC(=O)CCCCCCCOCc1ccc(F)c(F)c1` [Example 1, (R)-3-[8-(3,4-Difluoro-benzyloxy)-octanoylamino]-4-dimethylamino-butyric acid], the IC50 (hCPT2) was 910 nM and the IC50 (hL-CPT1) was 7.77 µM.

`CN(C)C[C@@H](CC(=O)O)NC(=O)CCCCCCCOCc1cc(F)ccc1F` [Example 2, (R)-3-[8-(2,5-Difluoro-benzyloxy)-octanoylamino]-4-dimethylamino-butyric acid] showed an IC50 (hCPT2) of 3490 nM and an IC50 (hL-CPT1) of over 10 µM.

Work on `CN(C)C[C@@H](CC(=O)O)NC(=O)CCCCCCCOCc1ccc(C(F)(F)F)cc1` [Example 6, (R)-4-Dimethylamino-3-[8-(4-trifluoromethyl-benzyloxy)-octanoylamino]-butyric acid] yielded an IC50 (hCPT2) of 189 nM and an IC50 (hL-CPT1) of over 10 µM.

In the case of `CN(C)C[C@@H](CC(=O)O)NC(=O)CCCCCCCOCc1ccc(C(F)(F)F)c(F)c1` [Example 7, (R)-4-Dimethylamino-3-[8-(3-fluoro-4-trifluoromethyl-benzyloxy)-octanoylamino]-butyric acid], the IC50 (hCPT2) is reported as 591 nM and the IC50 (hL-CPT1) is reported as 5.99 µM.

With `COc1ccc(COCCCCCCCC(=O)N[C@H](CC(=O)O)CN(C)C)cc1` [Example 8, (R)-4-Dimethylamino-3-[8-(4-methoxy-benzyloxy)-octanoylamino]-butyric acid] the IC50 (hCPT2) was 152 nM and the IC50 (hL-CPT1) was over 10 µM.

`CN(C)C[C@@H](CC(=O)O)NC(=O)CCCCCCCOCc1ccc(-c2ccccc2)cc1` [Example 9, (R)-3-[8-(Biphenyl-4-ylmethoxy)-octanoylamino]-4-dimethylamino-butyric acid] was tested, and the IC50 (hCPT2) was 2 nM and the IC50 (hL-CPT1) was 5.79 µM.

For `CN(C)C[C@@H](CC(=O)O)NC(=O)CCCCCCCOCc1ccc(C(F)(F)F)cc1F` [Example 10, (R)-4-Dimethylamino-3-[8-(2-fluoro-4-trifluoromethyl-benzyloxy)-octanoylamino]-butyric acid], the IC50 (hCPT2) was 694 nM and the IC50 (hL-CPT1) was over 10 µM.

`COc1c(F)c(F)c(COCCCCCCCC(=O)N[C@H](CC(=O)O)CN(C)C)c(F)c1F` [Example 11, (R)-4-Dimethylamino-3-[8-(2,3,5,6-tetrafluoro-4-methoxy-benzyloxy)-octanoylamino]-butyric acid] gave an IC50 (hCPT2) of 2940 nM and an IC50 (hL-CPT1) of over 10 µM.

In the case of `CN(C)C[C@@H](CC(=O)O)NC(=O)CCCCCCCOCc1cccc2ccccc12` [Example 12, (R)-4-Dimethylamino-3-[8-(naphthalen-1-ylmethoxy)-octanoylamino]-butyric acid], the IC50 (hCPT2) is reported as 300 nM and the IC50 (hL-CPT1) is reported as over 10 µM.

In the case of `CN(C)C[C@@H](CC(=O)O)NC(=O)CCCCCCCOCc1ccccc1F` [Example 13, (R)-4-Dimethylamino-3-[8-(2-fluoro-benzyloxy)-octanoylamino]-butyric acid], the IC50 (hCPT2) is reported as 2630 nM and the IC50 (hL-CPT1) is reported as over 10 µM.

Work on `CN(C)C[C@@H](CC(=O)O)NC(=O)CCCCCCCOCc1cccc(F)c1` [Example 14, (R)-4-Dimethylamino-3-[8-(3-fluoro-benzyloxy)-octanoylamino]-butyric acid] yielded an IC50 (hCPT2) of 783 nM and an IC50 (hL-CPT1) of over 10 µM.

`CN(C)C[C@@H](CC(=O)O)NC(=O)CCCCCCCOCc1ccc(F)cc1` [Example 15, (R)-4-Dimethylamino-3-[8-(4-fluoro-benzyloxy)-octanoylamino]-butyric acid] showed an IC50 (hCPT2) of 2060 nM and an IC50 (hL-CPT1) of 6.55 µM.

Work on `CN(C)C[C@@H](CC(=O)O)NC(=O)CCCCCCCOCc1ccccc1` [Example 17, (R)-3-(8-Benzyloxy-octanoylamino)-4-dimethylamino-butyric acid] yielded an IC50 (hCPT2) of 1560 nM and an IC50 (hL-CPT1) of over 10 µM.

Molecule `CN(C)C[C@@H](CC(=O)O)NC(=O)CCCCCCCCOc1ccccc1F` [Example 18, (R)-4-Dimethylamino-3-[9-(2-fluoro-phenoxy)-nonanoylamino]-butyric acid] has an IC50 (hCPT2) of 452 nM and an IC50 (hL-CPT1) of over 10 µM.

For `CN(C)C[C@@H](CC(=O)O)NC(=O)CCCCCCCCOc1cccc(F)c1` [Example 19, (R)-4-Dimethylamino-3-[9-(3-fluoro-phenoxy)-nonanoylamino]-butyric acid], the IC50 (hCPT2) was 16 nM and the IC50 (hL-CPT1) was 2.33 µM.

In the case of `CN(C)C[C@@H](CC(=O)O)NC(=O)CCCCCCCCOc1ccc(F)cc1` [Example 20, (R)-4-Dimethylamino-3-[9-(4-fluoro-phenoxy)-nonanoylamino]-butyric acid], the IC50 (hCPT2) is reported as 21 nM and the IC50 (hL-CPT1) is reported as 1 µM.

`CN(C)C[C@@H](CC(=O)O)NC(=O)CCCCCCCCOc1cccc(F)c1F` [Example 21, (R)-3-[9-(2,3-Difluoro-phenoxy)-nonanoylamino]-4-dimethylamino-butyric acid] showed an IC50 (hCPT2) of 265 nM and an IC50 (hL-CPT1) of 6.68 µM.

`CN(C)C[C@@H](CC(=O)O)NC(=O)CCCCCCCCOc1ccc(F)cc1F` [Example 22, (R)-3-[9-(2,4-Difluoro-phenoxy)-nonanoylamino]-4-dimethylamino-butyric acid] showed an IC50 (hCPT2) of 268 nM and an IC50 (hL-CPT1) of 8.63 µM.

`CN(C)C[C@@H](CC(=O)O)NC(=O)CCCCCCCCOc1ccc(F)c(F)c1` [Example 23, (R)-3-[9-(3,4-Difluoro-phenoxy)-nonanoylamino]-4-dimethylamino-butyric acid] was tested, and the IC50 (hCPT2) was 71 nM and the IC50 (hL-CPT1) was 1.66 µM.

In the case of `CN(C)C[C@@H](CC(=O)O)NC(=O)CCCCCCCCOc1ccc(F)c(F)c1F` [Example 24, (R)-4-Dimethylamino-3-[9-(2,3,4-trifluoro-phenoxy)-nonanoylamino]-butyric acid], the IC50 (hCPT2) is reported as 73 nM and the IC50 (hL-CPT1) is reported as 5.36 µM.

For `CN(C)C[C@@H](CC(=O)O)NC(=O)CCCCCCCCOc1ccc(-c2ccccc2)cc1` [Example 25, (R)-3-[9-(Biphenyl-4-yloxy)-nonanoylamino]-4-dimethylamino-butyric acid], the IC50 (hCPT2) was 19 nM and the IC50 (hL-CPT1) was 1.47 µM.

`CN(C)C[C@@H](CC(=O)O)NC(=O)CCCCCCCCCCOc1ccccc1` [Example 30, (R)-4-Dimethylamino-3-(11-phenoxy-undecanoylamino)-butyric acid] gave an IC50 (hCPT2) of 36 nM.

In the case of `CN(C)C[C@@H](CC(=O)O)NC(=O)CCCCCCCCOCCc1ccccc1` [Example 54, (R)-4-Dimethylamino-3-(9-phenethyloxy-nonanoylamino)-butyric acid], the IC50 (hCPT2) is reported as 82 nM.

`CN(C)C[C@@H](CC(=O)O)NC(=O)CCCCCCCOCCCc1ccccc1` [Example 55, (R)-4-Dimethylamino-3-[8-(3-phenyl-propoxy)-octanoylamino]-butyric acid] showed an IC50 (hCPT2) of 65 nM.

`CN(C)C[C@@H](CC(=O)O)NC(=O)CCCCCCCOCCOc1ccccc1` [Example 56, (R)-4-Dimethylamino-3-[8-(2-phenoxy-ethoxy)-octanoylamino]-butyric acid] showed an IC50 (hCPT2) of 101 nM.

In the case of “(R)-3-{3-[6-(2,3-Difluoro-benzyloxy)-hexyl]-ureido}-4-dimethylamino-butyric acid [Example 62]”, the IC50 (hCPT2) is reported as 1440 nM.
